{
  "source": "patent US5360613A",
  "about": "“Method of reducing blood levels of total cholesterol and low-density lipoprotein cholesterol” (Iowa State University Research Foundation, Inc., priority 1993, dated 1994)",
  "key": {"[1]": {"system": "plasma cholesterol and triglycerides", "experiment": "Pig feeding study, plasma cholesterol and triglycerides (Example III, Table C)", "format": "in vivo, pigs", "conditions": "for Plasma Triglycerides: control 107, ns; for Plasma Cholesterol: control 135", "description": "A further large mammal study was carried out with pigs. Pigs comprise test animals which are more similar in certain respects to humans than ruminants.\nControl: 60 g. of calcium\nThe pigs were housed in pens of two animals each and were allowed ad libitum access to food and water. Pigs were approximately 160 lbs. at the start of the experiment and were 240 lbs. at the end. All pigs were castrate males. At day 28 and day 43 of the experiment blood was collected from the anterior vena cava by venipuncture. Blood was collected into EDTA containing tubes, centrifuged and frozen until analyzed. At approximately 100 days of the experiment half of the animals (32) were slaughtered, and at 120 days the remaining 32 animals were slaughtered. At the time of slaughter the abdominal aorta was dissected out and external fat removed. The aorta was then split lengthwise and 1/2 fixed in formaldehyde for 48 hours. At this time aortas were removed, stretched over a 6 inch stick, washed in ethanol and stained with a lipid stain for 2 hours. After a 1 hour wash aortas were blotted and examined. All the aortas from a group were laid out on a white bench and arranged in order from least sever to most sever. The least sever had no dark red streaks on the aorta or around the small vertebral vessels leaving the aorta. The most sever lesions had multiple streaks in the middle of the aorta and dark red deposits in turbulent areas such as the branching of vessels from the aorta. The ordered aortas were then assigned a consecutive decimal number. The first (least severe) was assigned 0 and the most severe was assigned 3.2 Plasma cholesterol and triglycerides were measured by an enzyme-colorimetric assay (Sigma).\nstatistical analysis was accomplished by the general linear model procedure of the Statistical Analysis System (SAS). The model included the main effects of treatment and pen number. T-tests were conducted from the ANOVA standard error, to compare the HMB treatments to the control. […] It appeared that HMB can partially prevent the formation of pre-atherosclerotic lesions. No effect of KIC was noted relative to any parameter."}, "plasma cholesterol": {"system": "plasma cholesterol", "experiment": "Lamb feeding study, plasma cholesterol (Example II, Table B)", "format": "in vivo, lambs", "description": "In view of the encouraging results of Example I, a large mammal study was carried out with lambs. HMB was administered in the form of Ca-HMB.\nCross-bred lambs were obtained from a research flock. Males were selected from a pool of 108 rams while females were selected from a pool of 63 females. Selection was based on weight range, breed and previous performance. Breeding consisted of Dorset, Polypay and Suffold crosses. Males were divided into 5 weight blocks and females into 3 weight blocks. The two heaviest male blocks contained 27 lambs, allotted to 3 pens. All other blocks contained 18 lambs, allotted to 2 pens. Animals were weighed on consecutive days prior to starting the experiment. All animals were shorn 100 days into the experiment. The animals were housed in a single confinement unit with uniform pens. The feeders were concrete bunks with water supplied by several nipple waterers per pen. Dirt flooring was bedded with oat straw when necessary. Weight blocks were placed in adjacent pens with treatment randomly assigned to the blocks. The ration was complete in all nutrients for growing sheep. The diet was formulated to contain protein in excess of the normal requirement in an effort to assure that protein was not a limiting factor for any growth response. The feeding schedule consisted of two feedings per day with the amount controlled so that the animals had eaten all the feed from the previous feeding before being fed again. Also with the feed allotment, a top-dressing of 20 g of either a control premix containing HMB was added at the equivalent of 0.5 gram per animal per day and 1.5 gram per animal per day.\nCa-HMB was prepared by minor modification of the method of Coffman, et al. J. Am. […] Each batch was given a lot number and the purity assessed by high performance liquid chromatography. A single peak was measured when HMB was chromatographed on a C18 column and eluted with 0.01M phosphate buffer, pH 7.0. […]\nBlood was collected from each animal. The plasma was analyzed for cholesterol using an Abbott Spectrum Diagnostic system. […] A linear effect of HMB level was evaluated."}, "[2]": {"system": "acetate incorporation into cholesterol by the rat liver", "conditions": "0.5 g/kg body weight for 2 and 4 days; cited from earlier work"}, "[3]": {"system": "plasma cholesterol and triglycerides", "experiment": "Hamster feeding study, plasma cholesterol and triglycerides (Example I, Table A)", "format": "in vivo, hamsters", "conditions": "for % Change HDL cholesterol / % Change HDL/LDL / % Change LDL cholesterol / % Change Total cholesterol / % Change Triglycerides: HMB vs control", "description": "A preliminary experiment was carried out using hamsters as the test animal and Na-HMB as the therapeutic agent. The experimental details and the results obtained are described as follows.\nPregnant Female hamsters were housed and allowed to give birth. At three weeks of age, litters were subdivided into pairs within a sex. The pairs of hamsters were then assigned randomly a purified diet based on casein and cornstarch with either contained 0.1% NaCl (control) or one containing 0.1% Na-HMB (HMB). They were maintained on this diet for 6 weeks at which time they were killed by decapitation and blood collected into EDTA containing tubes. Blood was separated by centrifugation and plasma collected. The unfrozen plasma was treated with an LDL precipitating agent, centrifuged and the supernatant collected. The whole plasma and supernatant were assayed for cholesterol by an enzymatic method. Plasma cholesterol estimated total cholesterol while the supernatant represented HDL cholesterol. LDL cholesterol was estimated by the formula: LDL-Cholesterol=(Total cholesterol)-(HDL cholesterol)-(triglycerides X 0.2). Total triglycerides in plasma were estimated by an enzymatic assay."}, "[4]": {"experiment": "Human dose-response study, adverse effects (Example V)", "format": "in vivo, humans", "conditions": "0.5 to 4 g per day", "description": "Higher dose levels than in Example IV of Ca-HMB were tested in humans. The objective was to obtain an indication of whether higher doses could be safely administered, and also whether higher doses might provide a greater reduction in total cholesterol and LDL cholesterol.\nNormal humans were used in the study. Ca-HMB was administered in 250 mg capsules, and the subjects were instructed to take the capsules in 4 equal doses daily. No control of diet was attempted except they were instructed to eat as they normally would. On alternate days the subjects had blood drawn before the morning meal and before they took the morning HMB dose. Four subjects were studied for dose level of 05., 1, 2 and 4 grams per day."}, "[5]": {"conditions": "females, 0.1% Na-HMB diet, 6 weeks"}, "[6]": {"conditions": "males, 0.1% Na-HMB diet, 6 weeks"}},
  "data": [
    {"smiles": "CC(C)(O)CC(=O)O", "note": "[HMB, β-hydroxy-β-methylbutyric acid]", "values": [
      {"measurement": "Plasma Triglycerides", "setting": "[1]; dietary .01%", "result": 105, "unit": "mg %"},
      {"measurement": "Plasma Cholesterol", "setting": "[1]; dietary .01%, HMB C vs. .01% p .14", "result": 120, "unit": "mg %"},
      {"measurement": "Plasma Triglycerides", "setting": "[1]; dietary .05%", "result": 109, "unit": "mg %"},
      {"measurement": "Plasma Cholesterol", "setting": "[1]; dietary .05%, HMB p .05, KIC ns", "result": 118, "unit": "mg %"},
      {"measurement": "Plasma Cholesterol", "setting": "plasma cholesterol; 0.5 g HMB daily (Ca-HMB), control 54.3, linear effect 0.05", "result": 51.3},
      {"measurement": "Plasma Cholesterol", "setting": "plasma cholesterol; 1.5 g HMB daily (Ca-HMB), control 54.3, linear effect 0.05", "result": 48.1},
      {"measurement": "Plasma Cholesterol", "setting": "plasma cholesterol; oral consumption, lambs", "result": "decreased plasma cholesterol"},
      {"measurement": "rate of acetate incorporation into cholesterol by the rat liver", "setting": "[2]", "result": "not significantly lowered"},
      {"measurement": "HDL cholesterol", "setting": "[3]; females, 0.1% Na-HMB diet, 6 weeks, control 125", "result": 132, "unit": "mg %"},
      {"measurement": "Total cholesterol", "setting": "[3]; females, 0.1% Na-HMB diet, 6 weeks, control 237", "result": 228, "unit": "mg %"},
      {"measurement": "Triglycerides", "setting": "[3]; females, 0.1% Na-HMB diet, 6 weeks, control 240", "result": 212, "unit": "mg %"},
      {"measurement": "HDL/LDL", "setting": "[3]; females, 0.1% Na-HMB diet, 6 weeks, control .51", "result": ".41"},
      {"measurement": "LDL cholesterol", "setting": "[3]; females, 0.1% Na-HMB diet, 6 weeks, estimated by formula, control 64", "result": 53, "unit": "mg %"},
      {"measurement": "% Change HDL cholesterol", "setting": "[3]; [5]", "result": "+5%"},
      {"measurement": "% Change HDL/LDL", "setting": "[3]; [5]", "result": -20, "unit": "%"},
      {"measurement": "% Change LDL cholesterol", "setting": "[3]; [5]", "result": -17, "unit": "%"},
      {"measurement": "% Change Total cholesterol", "setting": "[3]; [5]", "result": -4, "unit": "%"},
      {"measurement": "% Change Triglycerides", "setting": "[3]; [5]", "result": -11, "unit": "%"},
      {"measurement": "HDL cholesterol", "setting": "[3]; hamsters", "result": "a trend to increase HDL cholesterol"},
      {"measurement": "LDL cholesterol", "setting": "[3]; hamsters", "result": "markedly lower LDL cholesterol"},
      {"measurement": "ratio of LDL/HDL", "setting": "[3]; hamsters", "result": "positively affected"},
      {"measurement": "HDL cholesterol", "setting": "[3]; males, 0.1% Na-HMB diet, 6 weeks, control 111", "result": 118, "unit": "mg %"},
      {"measurement": "Total cholesterol", "setting": "[3]; males, 0.1% Na-HMB diet, 6 weeks, control 217", "result": 208, "unit": "mg %"},
      {"measurement": "Triglycerides", "setting": "[3]; males, 0.1% Na-HMB diet, 6 weeks, control 232", "result": 226, "unit": "mg %"},
      {"measurement": "HDL/LDL", "setting": "[3]; males, 0.1% Na-HMB diet, 6 weeks, control .53", "result": ".38"},
      {"measurement": "LDL cholesterol", "setting": "[3]; males, 0.1% Na-HMB diet, 6 weeks, estimated by formula, control 59", "result": 45, "unit": "mg %"},
      {"measurement": "% Change HDL cholesterol", "setting": "[3]; [6]", "result": "+5%"},
      {"measurement": "% Change HDL/LDL", "setting": "[3]; [6]", "result": -28, "unit": "%"},
      {"measurement": "% Change LDL cholesterol", "setting": "[3]; [6]", "result": -24, "unit": "%"},
      {"measurement": "% Change Total cholesterol", "setting": "[3]; [6]", "result": -4, "unit": "%"},
      {"measurement": "% Change Triglycerides", "setting": "[3]; [6]", "result": -2, "unit": "%"},
      {"measurement": "adverse affects", "setting": "[4]", "result": "no adverse affects"},
      {"measurement": "complaint noted with several patients", "setting": "[4]", "result": "being hungrier than normal"}
    ]}
  ]
}
